pIC50: −log10 of the molar value.
Target: T1, PDGF-receptor beta enzyme comprising the tyrosine kinase domain (Homo sapiens, UniProt P09619)
T1 construct: from amino acid 545 to 1106 of GenBank Access NO: AAA36427
Experiment: Inhibition of PDGF-receptor kinase activity (cell-free, PLC1 peptide, 33P Flashplate)
Type: biochemical
Conditions: PDGF-R kinase activity; for inhibition at 10 µM: compound at 10 uM, read-out: Percent Inhibition @ 10 uM; for pIC50: read-out: IC50
Outline: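 The IC50 is the inhibitor level halving kinase activity relative to inhibitor-free wells, measured as 33P captured on a streptavidin-bound biotin-PLC1 peptide. The reaction ran 60 min at 30 °C in pH 8 Tris buffer with 1 mM DTT, 5 μM ATP and the 545–1106 kinase-domain enzyme.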

T1 sequence (P09619 545-1106): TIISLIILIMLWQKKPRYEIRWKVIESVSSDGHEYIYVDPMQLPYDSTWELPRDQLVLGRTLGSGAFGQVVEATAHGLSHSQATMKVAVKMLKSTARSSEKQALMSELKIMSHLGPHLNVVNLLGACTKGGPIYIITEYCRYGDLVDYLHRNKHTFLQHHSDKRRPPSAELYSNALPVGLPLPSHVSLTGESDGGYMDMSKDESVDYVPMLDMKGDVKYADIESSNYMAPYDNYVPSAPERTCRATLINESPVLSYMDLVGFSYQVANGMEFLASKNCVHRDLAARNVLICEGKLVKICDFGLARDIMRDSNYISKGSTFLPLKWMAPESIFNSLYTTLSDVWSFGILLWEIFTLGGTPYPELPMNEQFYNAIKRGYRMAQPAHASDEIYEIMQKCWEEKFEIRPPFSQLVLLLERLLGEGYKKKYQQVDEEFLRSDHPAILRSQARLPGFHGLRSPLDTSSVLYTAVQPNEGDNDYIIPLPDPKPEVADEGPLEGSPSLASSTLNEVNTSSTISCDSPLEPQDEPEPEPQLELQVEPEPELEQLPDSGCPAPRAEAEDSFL

inhibition at 10 µM [%]	pIC50	SMILES
85	6.08	COc1cccc2c1Cc1c-2n[nH]c1Nc1cccc(C(F)(F)F)c1 [Compound 150, (5-Methoxy-2,4-dihydro-indeno[1,2-c]pyrazol-3-yl)-(3-trifluoromethyl-phenyl)-amine]
79	7.04	Fc1cccc(Nc2[nH]nc3c2Cc2cc(Br)ccc2-3)c1 [Compound 151, (6-Bromo-2,4-dihydro-indeno[1,2-c]pyrazol-3-yl)-(3-fluoro-phenyl)-amine]
80	6.76	Brc1ccc2c(c1)Cc1c-2n[nH]c1Nc1cccnc1 [Compound 152, (6-Bromo-2,4-dihydro-indeno[1,2-c]pyrazol-3-yl)-pyridin-3-yl-amine]
79	5.99	Fc1ccc(F)c(Nc2[nH]nc3c2Cc2cc(Br)ccc2-3)c1 [Compound 153, (6-Bromo-2,4-dihydro-indeno[1,2-c]pyrazol-3-yl)-(2,5-difluoro-phenyl)-amine]
29	4.38	FC(F)(F)Oc1cccc(Nc2[nH]nc3c2Cc2cc(Br)ccc2-3)c1 [Compound 154, (6-Bromo-2,4-dihydro-indeno[1,2-c]pyrazol-3-yl)-(3-trifluoromethoxy-phenyl)-amine]
53	5.09	FC(F)(F)c1cccc(Nc2[nH]nc3c2Cc2cc(Br)ccc2-3)c1 [Compound 155, (6-Bromo-2,4-dihydro-indeno[1,2-c]pyrazol-3-yl)-(3-trifluoromethyl-phenyl)-amine]
87.5	6.73	Brc1ccc2c(c1)Cc1c-2n[nH]c1Nc1ccccc1 [Compound 158, (6-Bromo-2,4-dihydro-indeno[1,2-c]pyrazol-3-yl)-phenyl-amine]
92.5	7.00	CN(C)CCCOc1ccc2c(c1)Cc1c-2n[nH]c1Nc1ccc(F)cc1 [Compound 159, [6-(3-Dimethylamino-propoxy)-2,4-dihydro-indeno[1,2-c]pyrazol-3-yl]-(4-fluoro-phenyl)-amine]
84	6.42	CN(C)CCCOc1ccc2c(c1)Cc1c-2n[nH]c1Nc1cccnc1 [Compound 161, [6-(3-Dimethylamino-propoxy)-2,4-dihydro-indeno[1,2-c]pyrazol-3-yl]-pyridin-3-yl-amine]
21.5	4.26	COc1ccc(OC)c(Nc2[nH]nc3c2Cc2cc(OCCCN(C)C)ccc2-3)c1 [Compound 162, (2,5-Dimethoxy-phenyl)-[6-(3-dimethylamino-propoxy)-2,4-dihydro-indeno[1,2-c]pyrazol-3-yl]-amine]
32	4.64	CN(C)CCCOc1ccc2c(c1)Cc1c-2n[nH]c1Nc1cc(F)ccc1F [Compound 163, (2,5-Difluoro-phenyl)-[6-(3-dimethylamino-propoxy)-2,4-dihydro-indeno[1,2-c]pyrazol-3-yl]-amine]
92.5	7.00	CN(C)CCCOc1ccc2c(c1)Cc1c-2n[nH]c1Nc1cccc(C(F)(F)F)c1 [Compound 165, [6-(3-Dimethylamino-propoxy)-2,4-dihydro-indeno[1,2-c]pyrazol-3-yl]-(3-trifluoromethyl-phenyl)-amine]
88	7.07	COCCCOc1cc2c(cc1OC)-c1n[nH]c(Nc3ccc(F)c(Cl)c3)c1C2 [Compound 166, (3-Chloro-4-fluoro-phenyl)-[7-methoxy-6-(3-methoxy-propoxy)-2,4-dihydro-indeno[1,2-c]pyrazol-3-yl]-amine]
92	6.29	CC(C)Oc1cc2c(cc1OC(C)C)-c1n[nH]c(Nc3ccc(F)c(Cl)c3)c1C2 [Compound 167, (3-Chloro-4-fluoro-phenyl)-(6,7-diisopropoxy-2,4-dihydro-indeno[1,2-c]pyrazol-3-yl)-amine]
91	7.16	COc1cccc(Nc2[nH]nc3c2Cc2cc(OC(C)C)c(OC(C)C)cc2-3)c1 [Compound 168, (6,7-Diisopropoxy-2,4-dihydro-indeno[1,2-c]pyrazol-3-yl)-(3-methoxy-phenyl)-amine]
89	7.44	CC(C)Oc1cc2c(cc1OC(C)C)-c1n[nH]c(Nc3cccc(F)c3)c1C2 [Compound 169, (6,7-Diisopropoxy-2,4-dihydro-indeno[1,2-c]pyrazol-3-yl)-(3-fluoro-phenyl)-amine]
92.5	6.91	COc1ccc(Nc2[nH]nc3c2Cc2ccc(OC)cc2-3)cc1 [Compound 171, (7-Methoxy-2,4-dihydro-indeno[1,2-c]pyrazol-3-yl)-(4-methoxy-phenyl)-amine]
87	6.67	COc1ccc2c(c1)-c1n[nH]c(Nc3cccnc3)c1C2 [Compound 173, (7-Methoxy-2,4-dihydro-indeno[1,2-c]pyrazol-3-yl)-pyridin-3-yl-amine]
83	6.46	COc1ccc(OC)c(Nc2[nH]nc3c2Cc2ccc(OC)cc2-3)c1 [Compound 174, (2,5-Dimethoxy-phenyl)-(7-methoxy-2,4-dihydro-indeno[1,2-c]pyrazol-3-yl)-amine]

inhibition at 10 µM [%]	pIC50	SMILES
71	5.41	COc1ccc(Nc2[nH]nc3c2Cc2ccc(OC)cc2-3)c(OC)c1 [Compound 175, (2,4-Dimethoxy-phenyl)-(7-methoxy-2,4-dihydro-indeno[1,2-c]pyrazol-3-yl)-amine]
46.5	6.50	COc1ccc2c(c1)-c1n[nH]c(Nc3cc(F)ccc3F)c1C2 [Compound 176, (2,5-Difluoro-phenyl)-(7-methoxy-2,4-dihydro-indeno[1,2-c]pyrazol-3-yl)-amine]
65.5	6.28	COc1ccc2c(c1)-c1n[nH]c(Nc3ccc(OC(F)(F)F)cc3)c1C2 [Compound 177, (7-Methoxy-2,4-dihydro-indeno[1,2-c]pyrazol-3-yl)-(4-trifluoromethoxy-phenyl)-amine]
98.5	6.88	COc1ccc2c(c1)-c1n[nH]c(Nc3ccc(C(F)(F)F)cc3)c1C2 [Compound 178, (7-Methoxy-2,4-dihydro-indeno[1,2-c]pyrazol-3-yl)-(4-trifluoromethyl-phenyl)-amine]
53	6.26	COc1ccc(Nc2[nH]nc3c2Cc2ccc(C)cc2-3)cc1 [Compound 183, (4-Methoxy-phenyl)-(7-methyl-2,4-dihydro-indeno[1,2-c]pyrazol-3-yl)-amine]
94	5.96	COc1ccc(OC)c(Nc2[nH]nc3c2Cc2ccc(C)cc2-3)c1 [Compound 184, (2,5-Dimethoxy-phenyl)-(7-methyl-2,4-dihydro-indeno[1,2-c]pyrazol-3-yl)-amine]
78	6.38	Cc1ccc2c(c1)-c1n[nH]c(Nc3ccc(OC(F)(F)F)cc3)c1C2 [Compound 186, (7-Methyl-2,4-dihydro-indeno[1,2-c]pyrazol-3-yl)-(4-trifluoromethoxy-phenyl)-amine]
35		Cc1ccc2c(c1)-c1n[nH]c(Nc3cccc(C(F)(F)F)c3)c1C2 [Compound 187, (7-Methyl-2,4-dihydro-indeno[1,2-c]pyrazol-3-yl)-(3-trifluoromethyl-phenyl)-amine]
92	6.70	COc1ccc(Nc2[nH]nc3c2Cc2cc(Cl)ccc2-3)cc1 [Compound 189, (6-Chloro-2,4-dihydro-indeno[1,2-c]pyrazol-3-yl)-(4-methoxy-phenyl)-amine]
88	7.16	Fc1cccc(Nc2[nH]nc3c2Cc2cc(Cl)ccc2-3)c1 [Compound 191, (6-Chloro-2,4-dihydro-indeno[1,2-c]pyrazol-3-yl)-(3-fluoro-phenyl)-amine]
67	6.99	Fc1ccc(F)c(Nc2[nH]nc3c2Cc2cc(Cl)ccc2-3)c1 [Compound 192, (6-Chloro-2,4-dihydro-indeno[1,2-c]pyrazol-3-yl)-(2,5-difluoro-phenyl)-amine]
49		FC(F)(F)c1ccc(Nc2[nH]nc3c2Cc2cc(Cl)ccc2-3)cc1 [Compound 193, (6-Chloro-2,4-dihydro-indeno[1,2-c]pyrazol-3-yl)-(4-trifluoromethyl-phenyl)-amine]
87	5.58	FC(F)(F)Oc1ccc(Nc2[nH]nc3c2Cc2cc(Cl)ccc2-3)cc1 [Compound 194, (6-Chloro-2,4-dihydro-indeno[1,2-c]pyrazol-3-yl)-(4-trifluoromethoxy-phenyl)-amine]
76	5.64	FC(F)(F)c1cc(Nc2[nH]nc3c2Cc2cc(Cl)ccc2-3)cc(C(F)(F)F)c1 [Compound 195, (3,5-Bis-trifluoromethyl-phenyl)-(6-chloro-2,4-dihydro-indeno[1,2-c]pyrazol-3-yl)-amine]
70	5.89	CN(C)c1ccc(Nc2[nH]nc3c2Cc2cc(Cl)ccc2-3)cc1 [Compound 196, N-(6-Chloro-2,4-dihydro-indeno[1,2-c]pyrazol-3-yl)-N′,N′-dimethyl-benzene-1,4-diamine]
8		Cc1cccc(Nc2[nH]nc3c2Cc2cc(Cl)ccc2-3)c1 [Compound 197, (6-Chloro-2,4-dihydro-indeno[1,2-c]pyrazol-3-yl)-m-tolyl-amine]
72	6.86	Cc1ccc(Nc2[nH]nc3c2Cc2cc(Cl)ccc2-3)cc1 [Compound 198, (6-Chloro-2,4-dihydro-indeno[1,2-c]pyrazol-3-yl)-p-tolyl-amine]
63	6.19	COc1cc2c(cc1OC)-c1n[nH]c(Nc3cc(C)cc(C)c3)c1C2 [Compound 206, (6,7-Dimethoxy-2,4-dihydro-indeno[1,2-c]pyrazol-3-yl)-(3,5-dimethyl-phenyl)-amine]

Source: patent US7196110B2, “N-substituted tricyclic 3-aminopyrazoles as inhibitors for the treatment of cell proliferative disorders” (Janssen Phamaceutica N.V., priority 2002, dated 2007)
